Like-named read-outs stand apart in the source and are kept apart here.
What was measured:
MCF-7 = assay: Cell viability (MTT) assay, 24-h IC50, MCF-7; assay type: cell-based, human
MDA-MB231 = assay: Cell viability (MTT) assay, 24-h IC50, MDA-MB231; assay type: cell-based, human
HT29 = assay: Cell viability (MTT) assay, 24-h IC50, HT29; assay type: cell-based, human
SW480 = assay: Cell viability (MTT) assay, 24-h IC50, SW480; assay type: cell-based, human
MIA-PaCa-2 = assay: Cell viability (MTT) assay, 24-h IC50, MIA-PaCa-2; assay type: cell-based, human
BxPC-3 = assay: Cell viability (MTT) assay, 24-h IC50, BxPC-3
Procedure: Cells were incubated at 37° C. in 5% CO2. Cells were seeded at 5.5×10^4 cells/cm^2, allowed to attach overnight, and the following morning cells were treated with each of the test compounds.
Cell viability assay: We used an assay based on the reduction of 3-(4,5-dimethylthiazol-2-yl)-2,5-diphenyltetrazolium bromide dye (MTT), which was determined according to the manufacture's protocol (Promega, Madison, Wis., USA).

[1] = test system: MDA-MB 231 human breast cancer cells; assay: Cell proliferation assay (BrdU incorporation) in MDA-MB231; assay type: cell-based; details: MDA-MB231, each compound at its IC50 concentration
Text: Cell proliferation assay: To determine cell proliferation, we measured the incorporation of 5-bromo-2′-deoxyuridine (BrdU) into newly synthesized cellular DNA, following the manufacture's instructions (BD Biosciences, San Jose, Calif.).
(§1) As summarized in Table 2 below, in MDA-MB231 cells, all six compounds, each used at its IC50 concentration, a) inhibited cell proliferation between 6% and 50% compared to controls; b) induced both early and late apoptosis, as well as necrosis; and c) inhibited the G1 to S cell cycle phase transition. In this Table, the values for proliferation are the percentage of the corresponding control values. Those for apoptosis and necrosis refer to the percentage of cells in each category with respect to the entire cell population, and are to be compared to the control (vehicle only-treated) cells (uppermost row).

[2] = test system: MDA-MB 231 human breast cancer cells; assay: Annexin V and propidium iodide staining in MDA-MB231; assay type: cell-based; details: MDA-MB231, compound at its IC50, 24 h; for Necrosis (%): % of entire cell population (control 0.6); for Early apoptosis (%): % of entire cell population (control 1.4); for Late apoptosis (%): % of entire cell population (control 2.0)
Procedure: Annexin V and propidium iodide (PI) staining: Cells were seeded at a density of 1×10^5 cells/well and treated for 24 h with various concentrations of each compound or equivalent volumes of DMSO. Briefly, after incubation with the test compounds, cells were trypsinized and stained with Annexin V-FITC (Invitrogen) and PI (0.5 μg/ml). Following incubation at room temperature for 15 min in the dark, annexin V-FITC and PI fluorescence intensities were analyzed by FACScaliber (BD Bioscience). Annexin V (+)/PI (−) cells are in early apoptosis, annexin V (+)/PI (+) cells are in late apoptosis (secondary necrosis), and annexin V (−)/ PI (+) cells are necrotic cells.
as §1

[3] = test system: spermidine/spermine N^1-acetyltransferase (SSAT); assay: SSAT enzymatic activity in HT-29 cells; assay type: cell-based, human; details: HT-29, 24 h; phospho-sulindac I 85 μM; P<0.05 versus control
Procedure: (§2) SW480 cells were incubated without or with phospho-sulindac I (P-S) for up to 24 h and SSAT activity was determined at each time point by determining the amount of labelled N1-acetylspermidine synthesized from [^14C]acetyl-CoA and unlabeled spermidine.
(§3) The effect of phospho-sulindac I on polyamines is mediated, at least in part, by activation of SSAT by phospho-sulindac I. It is known that conventional sulindac induces SSAT activity (Babbar et al., Cyclooxygenase-independent induction of apoptosis by sulindac sulfone is mediated by polyamines in colon cancer. J Biol Chem 2003; 278(48):47762-75.). Incubation of HT-29 and SW480 cells with 85 μM phospho-sulindac I for 24 h leads to a 3- and 4.4-fold increase of SSAT activity (P<0.05 versus control), respectively. On the other hand, incubation with sulindac led to a 1.5 and 2.5-fold increase of SSAT activity (P<0.05 versus control) in HT-29 and SW480 cells, respectively.

[4] = test system: spermidine/spermine N^1-acetyltransferase (SSAT); assay: SSAT enzymatic activity in SW480 cells; assay type: cell-based, human; details: SW480, 24 h; phospho-sulindac I 85 μM; P<0.05 versus control
Procedure: as §2, §3

[5] = assay type: in vivo; details: 5 days oral gavage; phospho-sulindac I 317 mg/kg/d, sulindac 200 mg/kg/day; 8 mice/group
Procedure: Phospho-sulindac I lacked gastrointestinal toxicity in mice; gastrointestinal toxicity is the major side effect of sulindac as well as of the entire class of NSAIDs. We evaluated in mice the potential toxicity of phospho-sulindac I. Three groups, each consisting of 8 female C57BL/6J+/+mice 6 wks of age, were treated for 5 days by oral gavage with equimolar amounts of phospho-sulindac I (317 mg/kg/d) or conventional sulindac (200 mg/kg/day) or vehicle. Mice were weighed at time 0 and on days 3 and 5. Mice surviving to the end of the study were euthanized and necropsied.
The stomachs of sulindac-treated animals were larger than those of the other two groups and in some the liver appeared hyperemic.

APC^Min/+ mice = details: literature (Yang et al. 2003); cited from earlier work
[6] = Homo sapiens, MCF7, MCF-7 breast cancer cells, 24 h, read-out: 24-h IC50
[7] = Homo sapiens, MDA-MB-231, MDA-MB231 breast cancer cells, 24 h, read-out: 24-h IC50
[8] = Homo sapiens, HT-29, HT29 colon cancer cells, 24 h, read-out: 24-h IC50
[9] = Homo sapiens, SW480 colon cancer cells, 24 h, read-out: 24-h IC50
[10] = Homo sapiens, MIA-PaCa-2 pancreatic cancer cells, 24 h, read-out: 24-h IC50
[11] = Homo sapiens, BXPC-3, 24 h, read-out: 24-h IC50
[12] = Homo sapiens, MCF7, 24 h, read-out: 24-h IC50
[13] = Homo sapiens, MDA-MB-231, 24 h, read-out: 24-h IC50
[14] = Homo sapiens, HT-29, 24 h, read-out: 24-h IC50
[15] = Homo sapiens, SW480, 24 h, read-out: 24-h IC50
[16] = Homo sapiens, MIA PaCa-2, 24 h, read-out: 24-h IC50
[17] = MCF-7 breast cancer cells, 24 h, read-out: 24-h IC50
[18] = MDA-MB231 breast cancer cells, 24 h, read-out: 24-h IC50
[19] = HT29 colon cancer cells, 24 h, read-out: 24-h IC50
[20] = SW480 colon cancer cells, 24 h, read-out: 24-h IC50
[21] = MIA-PaCa-2 pancreatic cancer cells, 24 h, read-out: 24-h IC50
[22] = read-out: 24-h IC50, BxPC-3 pancreatic cancer cells, 24 h
[23] = Homo sapiens, BXPC-3, 24 h, read-out: IC50 (growth of human cancer cells)

SMILES | IC50 (MCF-7; [6]) | IC50 (MDA-MB231; [7]) | IC50 (HT29; [8]) | IC50 (SW480; [9]) | IC50 (MIA-PaCa-2; [10]) | IC50 (BxPC-3; [11]) | Proliferation (% control) [1] | Necrosis (%) [2] | Early apoptosis (%) [2] | Late apoptosis (%) [2] | also measured
CC(=O)Oc1ccccc1C(=O)O [Aspirin, acetylsalicylic acid, reference compound] | > 2000 µM | > 2000 µM | 4000 µM | > 2000 µM | > 2000 µM | > 2000 µM |  |  |  |  | 
CCOP(=O)(OCC)OCCCCOC(=O)C(C)c1ccc(CC(C)C)cc1 (stereo not drawn) [Phospho-Ibuprofen] |  |  |  |  |  | 53 µM | 50 % control | 5.6% | 7.4% | 43.2% | IC50 (MCF-7; [12]): 79 µM; IC50 (MDA-MB231; [13]): 28 µM; IC50 (HT29; [14]): 82 µM; IC50 (SW480; [15]): 75 µM; IC50 (MIA-PaCa-2; [16]): 104 µM
CC(C(=O)O)c1ccc(-c2ccccc2)c(F)c1 (stereo not drawn) [Flurobiprofen, flurbiprofen, reference compound] | 1430 µM | 823 µM | 1670 µM | 1220 µM | 1270 µM | 825 µM |  |  |  |  | 
CCOP(=O)(OCC)OCC(COC(=O)c1ccccc1OC(C)=O)OP(=O)(OCC)OCC (stereo not drawn) [Glycero-phospho-aspirin II] |  |  |  |  |  |  | 52 % control | 0.4% | 2.4% | 2.2% | IC50 (MCF-7; [17]): 248 µM; IC50 (MDA-MB231; [18]): 360 µM; IC50 (HT29; [19]): 40 µM; IC50 (SW480; [20]): 170 µM; IC50 (MIA-PaCa-2; [21]): 242 µM; IC50 (BxPC-3; [22]): 38 µM
CCOP(=O)(OCC)OCCCCOC(=O)C(C)c1ccc(-c2ccccc2)c(F)c1 (stereo not drawn) [Phospho-Flurobiprofen] |  |  |  |  |  | 34 µM | 42 % control | 1.7% | 5.3% | 20.6% | IC50 (MCF-7; [12]): 65 µM; IC50 (MDA-MB231; [13]): 17 µM; IC50 (HT29; [14]): 80 µM; IC50 (SW480; [15]): 104 µM; IC50 (MIA-PaCa-2; [16]): 135 µM
CCCC(CCC)C(=O)Oc1ccc(COP(=O)(OCC)OCC)cc1 [Phosoho-VPA] |  |  |  |  |  |  |  |  |  |  | IC50 (MCF-7; Homo sapiens, MCF7, 24 h, read-out: IC50 (growth of human cancer cells)): 51 µM; IC50 (MDA-MB231; Homo sapiens, MDA-MB-231, 24 h, read-out: IC50 (growth of human cancer cells)): 30 µM; IC50 (HT29; Homo sapiens, HT-29, 24 h, read-out: IC50 (growth of human cancer cells)): 13 µM; IC50 (SW480; Homo sapiens, SW480, 24 h, read-out: IC50 (growth of human cancer cells)): 59 µM; IC50 (MIA-PaCa-2; Homo sapiens, MIA PaCa-2, 24 h, read-out: IC50 (growth of human cancer cells)): 89 µM; IC50 (BxPC-3; [23]): 36 µM
CC1=C(CC(=O)O)c2cc(F)ccc2C1=Cc1ccc([S+](C)[O-])cc1 (stereo not drawn) [Sulindac, 2-[6-fluoro-2-methyl-3-[(4-methylsulfinylphenyl)methylidene]inden-1-yl]-acetic acid, reference compound] | 1130 µM | 530 µM | 1170 µM | 900 µM | 1040 µM | 489 µM |  |  |  |  | increase of SSAT activity [3]: 1.5 fold; increase of SSAT activity [4]: 2.5 fold; mortality [5]: 75%; effect on formation of tumors in the colon of Min mice (APC^Min/+ mice): stimulates the formation of tumors in the colon
CCOP(=O)(OCC)OCCCCOC(=O)CC1=C(C)/C(=C/c2ccc(SC)cc2)c2ccc(F)cc21 [Phospho-sulindac II] |  |  |  |  |  | 32 µM | 52 % control | 2.6% | 5.0% | 23.2% | IC50 (MCF-7; [12]): 38 µM; IC50 (MDA-MB231; [13]): 18 µM; IC50 (HT29; [14]): 70 µM; IC50 (SW480; [15]): 73 µM; IC50 (MIA-PaCa-2; [16]): 92 µM
CC(C)Cc1ccc(C(C)C(=O)O)cc1 (stereo not drawn) [Ibuprofen, ibuprofen, reference compound] | 1230 µM | 748 µM | 1550 µM | 1060 µM | 1280 µM | 1060 µM |  |  |  |  | 
CCOP1(=O)OCC(COC(=O)c2ccccc2OC(C)=O)O1 (stereo not drawn) [Glycero-phospho-aspirin I] |  |  |  |  |  |  | 94 % control | 0.3% | 4.8% | 3.2% | IC50 (MCF-7; [17]): 32 µM; IC50 (MDA-MB231; [18]): 199 µM; IC50 (HT29; [19]): 54 µM; IC50 (SW480; [20]): 169 µM; IC50 (MIA-PaCa-2; [21]): 303 µM; IC50 (BxPC-3; [22]): 63 µM
CCCC(CCC)C(=O)O [VPA, Valproic acid, reference compound] |  |  |  |  |  |  |  |  |  |  | IC50 (MCF-7; Homo sapiens, MCF7, Table 3, MCF-7, 24-h IC50, read-out: IC50 (growth of human cancer cells)): 1780 µM; IC50 (MDA-MB231; Homo sapiens, MDA-MB-231, Table 3, MDA-MB231, 24-h IC50, read-out: IC50 (growth of human cancer cells)): 4050 µM; IC50 (HT29; Homo sapiens, Table 3, HT-29, 24-h IC50, read-out: IC50 (growth of human cancer cells)): 3210 µM; IC50 (SW480; Homo sapiens, Table 3, SW480, 24-h IC50, read-out: IC50 (growth of human cancer cells)): 3640 µM; IC50 (MIA-PaCa-2; Homo sapiens, MIA PaCa-2, Table 3, MIA PaCa2, 24-h IC50, read-out: IC50 (growth of human cancer cells)): 3080 µM; IC50 (BxPC-3; [23]): 1680 µM
